Measured values reported in US20070254903A1, “Novel Spiroindoline or Spiroisoquinoline Compounds, Methods of Use and Compositions Thereof” (ARENA PHARMACEUTICALS, INC., priority 2003, published 2007).

Target: T1, human Mas receptor (Homo sapiens, UniProt P04201)
T1 construct: expressed in transfected cells
T1 sequence (P04201 1-325): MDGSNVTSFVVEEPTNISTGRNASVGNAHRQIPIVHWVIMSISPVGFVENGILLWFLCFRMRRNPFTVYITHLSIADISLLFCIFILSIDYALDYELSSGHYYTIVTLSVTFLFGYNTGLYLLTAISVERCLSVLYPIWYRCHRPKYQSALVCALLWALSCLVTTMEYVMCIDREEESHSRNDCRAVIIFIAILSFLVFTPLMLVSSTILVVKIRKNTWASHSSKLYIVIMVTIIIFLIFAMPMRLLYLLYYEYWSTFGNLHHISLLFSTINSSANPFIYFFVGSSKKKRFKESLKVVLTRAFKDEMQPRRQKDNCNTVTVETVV
Experiment: Mas receptor IP3 assay (inverse agonist assay)
Format: cell-based
Description: The Mas receptor IP3 assay was performed using a mammalian cell line (HEK293) which was transfected with a plasmid containing the human Mas receptor and selected for stable expression of the receptor. For the inverse agonist assay, higher levels of Mas receptor constitutive activity were desired. To achieve this, Mas receptor expression levels were increased by transiently transfecting the same Mas receptor stable cell line with additional human Mas receptor plasmid DNA following standard procedures. These cells were used in the Mas receptor IP3 assay approximately 24 hours post-transfection.
Cells were split into 96-well plates (50,000 cells/well) and allowed to attach for a period of 6 hours. The growth medium was then replaced with medium supplemented with 4 μCi/ml [^3H]myo-inositol (100 μl; Perkin Elmer Life Sciences) and the cells were allowed to incubate for approximately 20 hours. Test compounds were serially diluted in inositol-free media containing 10 mM LiCl. The media in the plates was removed by aspiration, replaced with these test compound solutions and incubated at 37° C. for 1 hour. Following this incubation, the media was removed by aspiration and replaced with buffer containing 0.1M formic acid. The plates were then frozen overnight at −80° C. to achieve complete cell lysis.
The following day, the assay plates were thawed at room temperature. The thawed contents were then transfered to 96-well filter plates (Millipore, Multiscreen) pre-loaded with resin (Biorad, AG1-X8 100-200 mesh, formate form). The plate was filtered using a vacuum manifold and the resin was washed multiple times with water. An elution buffer was then applied (200 μl, 0.2M Ammonium formate/0.1M formic acid) and the resulting eluent was collected, under vacuum, in a 96-well collection plate. Aliquots of the eluent (80 μl) were transferred to filter plates (Whatman, Unifilter GF/C) and dried in a 45° C. oven overnight. Dried plates were counted on a scintillation counter following the addition of an appropriate scintillant (Perkin Elmer Life Sciences, Optiphase Supermix or Hi-Safe 3).

In the case of `C=CCN1CCC2(CC1)CN(C(=O)c1cccc(F)c1F)c1ccc(F)cc12` [Compound 75, 1′-(allyl)-1,2-dihydro-5-fluoro-1-(2,3-difluoro-benzoyl)-spiro[3H-indole-3,4′-piperidine]], the IC50 (HEK293 cells over-expressing human Mas receptor, average from several experiments) is reported as 298 nM and the IC50 (representative experiment, FIG. 1) is reported as 225 nM.
